The subject of one experiment is guinea pig ileum. Put plainly: Isometric contractions of guinea pig ileal segments in organ bath. Here is the method:
Ileal segments (about 2 cm) were prepared from male guinea pigs euthanized by asphyxiation with CO2 and mounted in an organ bath filled with Krebs-Ringer bicarbonate (KRB) buffer as described in Thomas et al., Mol. Pharmacol. 44:102-110 (1993). Isometric contractions of the preparations were measured with a force transducer and recorded on a polygraph (Grass Instruments). The contractile responses are expressed as the mass (g) required to generate the measured force. For contractile measurements of field-stimulations, ilea were mounted between platinum ring electrodes connected to a stimulator (Grass SD9). Ilea were electrically stimulated (40 mV, 8 ms duration, 0.2 Hz) for 5 min followed by a resting period of 8-10 min.
Drugs were diluted in KRB and added directly to the bath. For intraluminal drug application a polyethylene tube (I.D.: 2 mm; length: 1.2 cm) was inserted about 3 mm deep into the ileum and fixed with a surgical thread. The other end of the preparation was closed tightly by a thread. The intubated ilea were mounted in the organ bath in such a way that the open end of the polyethylene tube was extending above the buffer surface. Drugs were administered to the ileal lumen using a Hamilton syringe. After each incubation, ilea were washed three times with KRB and allowed to equilibrate for at least 10 min. For some experiments ilea were removed from animals that had been treated with 100 μg/kg pertussis toxin three days prior to the experiment. Dose response curves were obtained in separate experiments for each drug concentration tested in duplicate and EC50 values were calculated using GraphPad Prism.
However, due to the irregular nature of these contractions it was not possible to study dose-response relationships of pharmacological agents in such a preparation. Therefore, field-stimulation was used to elicit contractions that are known to be mediated by neuronal release of acetylcholine activating M3 muscarinic receptors (Cowie et al., Brit. J. Pharmacol. 64:565-580 (1978); Kilbinger et al., Eur. J. Pharmacol. 103:313-320 (1984)).

In another experiment the test system is rat arterial tissues. Put plainly: Contraction of precontracted rat arterial rings in organ bath. Particulars: for EC50: read-out: EC50 of relaxation. As to the method: Rat arterial tissues were prepared as described previously (Duckles, S. P., J. Pharmacol. Exp. Ther. 240: 697-700 (1987); Sara Sangha et al., J. Appl. Physiol. 88: 507-517 (2000)). Briefly, male Wistar rats (250 g) were sacrificed by decapitation. The thoracic and abdominal aorta and the carotid artery were immediately removed and cleaned of adhering tissue. Arteries were cut into rings (about 3 mm in length) and mounted into an organ bath filled with Kreb-Ringer-bicarbonate buffer at 37° C. (buffer composition: 119.2 mM NaCl, 25 mM NaHCO3, 4.9 mM KCl, 1.2 mM MgSO4, 11.1 mM glucose, 0.114 mM ascorbic acid, pH 7.4). The buffer was aerated by bubbling with 95% O2:5% CO2. Arterial rings were connected to a force transducer and isometric contractions of the preparations were recorded using MacLab. The contractile responses are expressed as the mass (g) required to generate the measured force. The arterial preparations were equilibrated for one hour at a resting force of 2 g and then challenged several times with 100 mM KCl to establish a baseline.
To determine the effect of ADP-glucose on evoked contractions, arterial rings were precontracted with either 0.3 μM phenylephrine or 0.3 μM serotonin. ADP-glucose was subsequently added to the arterial rings in a cumulative manner to establish a dose-response relationship between ADP-glucose concentration and arterial ring contraction. At the end of each experiment, residual constriction was reversed by the addition of 1 μM acetylcholine. Each arterial preparation was tested in triplicate with each cumulative dosage scheme carried out at least twice. Data are expressed as means±S.E.M. and dose-response curves were calculated with Prism (GraphPad, San Diego).

For experiment [1], the target named is T1, human ADP-glucose receptor (Homo sapiens, UniProt Q9H244).
T1 construct: such that a nucleic acid molecule encoding a full-length ADP-glucose receptor can be amplified; expressed in transfected cells
T1 sequence (Q9H244 whole entry): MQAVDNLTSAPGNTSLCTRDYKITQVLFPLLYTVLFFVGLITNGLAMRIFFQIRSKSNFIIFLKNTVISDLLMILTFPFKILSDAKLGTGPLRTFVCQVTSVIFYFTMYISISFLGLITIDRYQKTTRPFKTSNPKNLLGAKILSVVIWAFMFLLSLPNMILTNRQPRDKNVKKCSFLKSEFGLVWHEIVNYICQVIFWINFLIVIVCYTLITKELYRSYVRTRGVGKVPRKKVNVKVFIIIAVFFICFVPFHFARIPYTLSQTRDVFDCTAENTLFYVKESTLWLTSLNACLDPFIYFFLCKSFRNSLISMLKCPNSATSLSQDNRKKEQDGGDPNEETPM
In words: Intracellular calcium mobilization (FLIPR, Fluo4-AM) in CHO cells transiently transfected with the cloned receptor. The experiment is classed as cell-based. Particulars: for induction of increase in intracellular Ca2+ / receptor activation: CHO cells cotransfected with receptor, Gα16 and chimeric Gαqi3; for increase in intracellular Ca2+ in untransfected cells: untransfected CHO cells. As to the method:
(§1) In order to characterize the function of the encoded receptor, the pCDNA3.1 expression construct containing the amplified receptor gene was transiently transfected into human embryonic kidney (HEK 293) cells or Chinese hamster ovary (CHO) cells. HEK 293 cells were cultured in DMEM containing 10% fetal bovine serum (FBS), and CHO cells were cultured in alpha-MEM with 5% FBS. All cells were kept at 37° C. in a 5% CO2 atmosphere.
(§2) For certain experiments, the cells were transiently cotransfected with the receptor construct and equimolar ratios of the G-protein alpha subunit Gα16 and/or the chimeric subunit […] in pCDNA3.1 (described in Saito et al., Nature 265-269 (1999)). For functional assays measuring intracellular calcium, twenty-four hours after transfection, cells were seeded into black clear-bottom 96-well plates at a density of 50,000 cells/well. Following overnight incubation the cells were loaded for 1 h with 1 μM of the fluorescent calcium indicator dye Fluo4-AM (Molecular Probes) dissolved in assay buffer containing Hank's balanced salts, 20 mM HEPES, 1% FBS, 2.5 mM probenecid, pH 7.4. After loading, the cells were washed three times with assay buffer without FBS. Addition of drugs and measurement of changes in intracellular calcium were performed using a fluorimetric imaging plate reader (FLIPR, Molecular Devices). Agonist responses were determined using the maximum change in fluorescence over baseline.
To enforce coupling of the novel receptor to the phospholipase C pathway, CHO cells were transiently cotransfected with expression constructs containing the amplified receptor DNA, Gα16 and a chimeric Gαq subunit carrying the C-terminal tail of Gαi3.
Dose-response curves were calculated using GraphPad Prism (GraphPad Software Inc.).
In order to determine the preferential G-protein coupling of the ADP-glucose receptor, mobilization of [Ca^2+]i was examined in CHO cells expressing either the receptor alone or in combination with either Gα16 or Gαqi3.

Experiment [2] has as its system endogenous ADP-glucose receptor in HEK 293 cells. In words: Intracellular calcium mobilization (FLIPR, Fluo4-AM) in HEK 293 cells. In kind it is cell-based, human. As to the method:
as §1, §2
The ADP-glucose receptor construct was also expressed in HEK 293 cells.

A further experiment relates to unanesthetised frogs. As to conditions: systemic administration; cited from earlier work.
For a further experiment, the system named is isolated frog heart. As to conditions: cyclic perfusion; cited from earlier work.
The mark [3] stands for this setting: carotid arteries, serotonin-induced constrictions.
[4] abbreviates: CHO cells transiently transfected with receptor construct together with Gα16 and Gαqi3, read-out: EC50 of transient increase in [Ca2+]i.
Setting [5] is: untransfected HEK 293 cells, endogenous receptor, read-out: EC50 of [Ca2+]i increase.

Entries after “also recorded” stand apart in the source; their conditions may differ. Read-outs that look alike come from different tables or passages of the source.

Consider `Nc1ncnc2c1ncn2[C@@H]1O[C@H](COP(=O)(O)OP(=O)(O)O[C@H]2O[C@H](CO)[C@@H](O)[C@H](O)[C@H]2O)[C@@H](O)[C@H]1O` [ADP-glucose, adenosine 5′-diphosphoglucose], for which the “maximal inhibition of histamine-evoked contractions” value in the experiment on guinea pig ileum (contractions produced by 0.3 μM histamine) worked out at 60%. The EC50 was found to be 6.2 ± 1.8 µM with guinea pig ileum (contractions produced by 0.3 μM histamine, read-out: EC50 of inhibition of histamine-evoked contractions); 6.64 ± 0.4 µM with guinea pig ileum (field-stimulated, untreated ileum, read-out: EC50 of inhibition of electrically evoked contractions); 35.5 ± 5.5 µM with guinea pig ileum (ileum from pertussis toxin treated animals, read-out: EC50 of inhibition of electrically evoked contractions); 6.67 ± 1.8 µM in the experiment on rat arterial tissues (abdominal aorta, precontracted with 0.3 μM phenylephrine); 3.26 ± 0.12 µM with rat arterial tissues (abdominal aorta, precontracted with 0.3 μM serotonin); 20.5 ± 6.3 µM with rat arterial tissues (setting [3]). Besides, the half-maximal effective concentration (EC50) was 3.1 ± 0.3 µM in the experiment with rat arterial tissues (carotid artery, precontracted with 0.3 μM phenylephrine); 13.8 ± 2.8 µM in the experiment with rat arterial tissues (thoracic aorta, precontracted with 0.3 μM phenylephrine); 8.2 ± 1.3 µM in experiment [1] (CHO cells cotransfected with receptor and Gαqi3, read-out: EC50 of [Ca2+]i mobilization); 24 ± 4.1 µM in experiment [1] (CHO cells expressing receptor alone, read-out: EC50 of [Ca2+]i mobilization); 2.98 ± 0.22 µM in experiment [1] (setting [4]); 11.8 ± 2.4 µM in experiment [1] (CHO cells, receptor with Gα16, read-out: EC50 of [Ca2+]i mobilization). Also, the 50% effective concentration (EC50) is 2.5 ± 0.82 µM in experiment [2] (HEK 293 cells transiently cotransfected with cloned receptor and Gα16, read-out: EC50 of intracellular Ca2+ release); 2.9 ± 0.51 µM in experiment [2] (setting [5]). Besides, the “maximal inhibition of electrically evoked contractions” value in the experiment with guinea pig ileum (ileum from pertussis toxin treated animals) turned out to be 40%; in the experiment on guinea pig ileum (maximally effective concentrations, untreated ileum), 90%. The “effect on electrically-evoked contractions” value in the experiment on guinea pig ileum (ileum punctured to release intraluminal content into the bath) is “strong inhibition”. For the same molecule, in the experiment with guinea pig ileum (intraluminal administration), the “effect on field-stimulated contractions” value was “no effect”. For the same molecule, the “effect on contractions produced by oxotremorine M” value with guinea pig ileum (muscarinic agonist oxotremorine M) is listed as “unaffected”. In addition, the “effect on spontaneous contractions” value in the experiment with guinea pig ileum (spontaneous contractions, ileum preparations) is recorded as “inhibition of spontaneous contractions”. For the same molecule, the maximal relaxation result in the experiment with rat arterial tissues (abdominal aorta, serotonin-precontracted) is “about 80%”; in the experiment with rat arterial tissues (setting [3]), 40%; with rat arterial tissues (phenylephrine-precontracted, highest concentration tested, all three tissues) it was 40%-50%. In the experiment on rat arterial tissues (thoracic aorta, serotonin-precontracted), the “response of serotonin-precontracted thoracic aorta” value is recorded as “unresponsive”. Also, the “effect on untreated arterial tissue” value with rat arterial tissues (untreated arterial tissue at resting force) is “no effect”. The “induction of increase in intracellular Ca2+ / receptor activation” value in experiment [1] is “induced a dose-dependent and transient increase”. Also, the “increase in intracellular Ca2+ in untransfected cells” value in experiment [1] is “not in untransfected cells”. The “[Ca2+]i response in HEK 293 cells” value in experiment [2] is “strong mobilization of [Ca^2+]i”.
For `Nc1ncnc2c1ncn2[C@@H]1O[C@H](COP(=O)(O)OP(=O)(O)O[C@H]2O[C@H](CO)[C@@H](O)[C@H](O)[C@@H]2O)[C@@H](O)[C@H]1O` [ADP-mannose], in experiment [1], the “induction of increase in intracellular Ca2+ / receptor activation” value is “only ADP-glucose and ADP-ribose induced a dose-dependent and transient increase; also recorded: unable to activate the receptor”.
As for `Nc1ncnc2c1ncn2[C@@H]1O[C@H](COP(=O)(O)OP(=O)(O)OC[C@H]2OC(O)[C@H](O)[C@@H]2O)[C@@H](O)[C@H]1O` (stereo partly shown) [ADP-ribose], the “effect on electrically-evoked contractions” value with guinea pig ileum (field-stimulated ileum, drug added to bath) was “very similar inhibitory effects”. For the same molecule, the “effect on heart rate” value in the experiment on unanesthetised frogs was “reversible increase in heart rate”. In the experiment with isolated frog heart, the “effect on action potential in the sinus node” value was “decrease in the action potential duration and rate of rise in the sinus node”; the “effect on heart rate and contraction force” value was “dose-dependent decrease in heart rate and contraction force”. Also, in experiment [1], the “induction of increase in intracellular Ca2+ / receptor activation” value was “partial agonist; also recorded: induced a dose-dependent and transient increase”; the “increase in intracellular Ca2+ in untransfected cells” value is reported as “not in untransfected cells”. Moreover, the EC50 in experiment [1] (setting [4]) was 59.4 ± 7.3 µM. Besides, in experiment [2], the “[Ca2+]i response in HEK 293 cells” value is reported as “full agonist”. In addition, the EC50 in experiment [2] (setting [5]) is 38.7 ± 10.6 µM.
On to `Nc1ncnc2c1ncn2[C@@H]1O[C@H](COP(=O)(O)OP(=O)(O)O)[C@@H](O)[C@H]1O` [ADP], for which the “induction of increase in intracellular Ca2+ / receptor activation” value in experiment [1] is “only ADP-glucose and ADP-ribose induced a dose-dependent and transient increase”.
In the case of `Nc1ncnc2c1ncn2[C@@H]1O[C@H](COP(=O)(O)O)[C@@H](O)[C@H]1O` [AMP], the “induction of increase in intracellular Ca2+ / receptor activation” value in experiment [1] was “only ADP-glucose and ADP-ribose induced a dose-dependent and transient increase”.
For `Nc1ncnc2c1ncn2[C@@H]1O[C@H](COP(=O)(O)OP(=O)(O)OP(=O)(O)O)[C@@H](O)[C@H]1O` [ATP], the “induction of increase in intracellular Ca2+ / receptor activation” value in experiment [1] is “only ADP-glucose and ADP-ribose induced a dose-dependent and transient increase”.
As for `Nc1ccn([C@@H]2O[C@H](COP(=O)(O)OP(=O)(O)O[C@H]3O[C@H](CO)[C@@H](O)[C@H](O)[C@H]3O)[C@@H](O)[C@H]2O)c(=O)n1` [CDP-glucose], the “induction of increase in intracellular Ca2+ / receptor activation” value in experiment [1] was “only ADP-glucose and ADP-ribose induced a dose-dependent and transient increase”. Moreover, the “[Ca2+]i response in HEK 293 cells” value in experiment [2] was “did not respond”.
Consider `Nc1nc2c(ncn2[C@@H]2O[C@H](COP(=O)(O)OP(=O)(O)O[C@H]3O[C@H](CO)[C@@H](O)[C@H](O)[C@H]3O)[C@@H](O)[C@H]2O)c(=O)[nH]1` [GDP-glucose], for which the “induction of increase in intracellular Ca2+ / receptor activation” value in experiment [1] is “only ADP-glucose and ADP-ribose induced a dose-dependent and transient increase”. Besides, the “[Ca2+]i response in HEK 293 cells” value in experiment [2] is recorded as “did not respond”.
With `Cc1cn([C@H]2C[C@H](O)[C@@H](COP(=O)(O)OP(=O)(O)O[C@H]3O[C@H](CO)[C@@H](O)[C@H](O)[C@H]3O)O2)c(=O)[nH]c1=O` [TDP-glucose], the “induction of increase in intracellular Ca2+ / receptor activation” value in experiment [1] was “only ADP-glucose and ADP-ribose induced a dose-dependent and transient increase”. For the same molecule, the “[Ca2+]i response in HEK 293 cells” value in experiment [2] is recorded as “did not respond”.
Take `Nc1ncnc2c1ncn2[C@@H]1O[C@H](CO)[C@@H](O)[C@H]1O` [adenosine]: the “induction of increase in intracellular Ca2+ / receptor activation” value in experiment [1] was “only ADP-glucose and ADP-ribose induced a dose-dependent and transient increase”.

The values are drawn from patent US6790608B2, “Methods of identifying and ADP-glucose receptor ligand, agonist or antagonist” (The Regents of the University of California, priority 2000, dated 2004).
